Results as given in patent US12559492B2, “BRAF degraders” (C4 Therapeutics, Inc., priority 2020, dated 2026).

Target: BRAF^V600E protein (Homo sapiens, UniProt P15056, V600E)
Test: HiBiT cellular BRAF V600E degradation assay
Assay type: cell-based
Conditions: 24 h incubation; for DC50: A375.10 cells (HiBiT tag knocked in at N-terminal of BRAF V600E), concentration at which 50% of total cellular BRAF V600E is degraded; for Emax: A375.10 cells, Emax = amount of residual protein remaining in the cell after compound treatment, read-out: HiBit 24 h Emax

Sequence of BRAF^V600E protein (P15056 whole entry V600E): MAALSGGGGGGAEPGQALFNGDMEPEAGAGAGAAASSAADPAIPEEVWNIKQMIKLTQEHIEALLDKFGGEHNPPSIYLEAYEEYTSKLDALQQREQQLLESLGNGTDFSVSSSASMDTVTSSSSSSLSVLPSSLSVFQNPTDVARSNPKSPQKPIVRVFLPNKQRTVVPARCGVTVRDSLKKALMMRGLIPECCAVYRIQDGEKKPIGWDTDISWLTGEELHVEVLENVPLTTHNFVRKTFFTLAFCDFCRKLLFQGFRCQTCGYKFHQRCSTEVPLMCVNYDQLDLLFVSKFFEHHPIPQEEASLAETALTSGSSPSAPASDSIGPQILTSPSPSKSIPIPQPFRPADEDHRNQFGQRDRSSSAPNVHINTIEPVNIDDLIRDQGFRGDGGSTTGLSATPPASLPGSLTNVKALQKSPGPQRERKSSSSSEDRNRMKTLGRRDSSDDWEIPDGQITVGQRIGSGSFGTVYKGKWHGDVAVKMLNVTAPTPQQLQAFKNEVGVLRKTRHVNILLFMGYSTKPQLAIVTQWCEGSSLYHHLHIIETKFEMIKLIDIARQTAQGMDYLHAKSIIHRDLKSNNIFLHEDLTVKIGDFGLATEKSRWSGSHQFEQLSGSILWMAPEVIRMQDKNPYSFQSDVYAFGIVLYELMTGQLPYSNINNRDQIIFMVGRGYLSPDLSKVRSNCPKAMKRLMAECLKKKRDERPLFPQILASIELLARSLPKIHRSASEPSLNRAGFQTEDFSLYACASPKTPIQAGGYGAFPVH

SMILES | DC50 [nM] | Emax [%]
CCN(C)S(=O)(=O)Nc1ccc(F)c(C(=O)c2c[nH]c3ncc(-c4ccc(N5CCN(C(=O)CC6(O)CCN(c7ccc(NC8CCC(=O)NC8=O)cc7F)CC6)CC5)c(C)c4)cc23)c1F (stereo not shown) [Example 192, 5-[4-[4-[2-[1-[4-[(2,6-dioxo-3-piperidyl)amino]-2-fluoro-phenyl]-4-hydroxy-4-piperidyl]acetyl]piperazin-1-yl]-3-methyl-phenyl]-3-[3-[[ethyl(methyl)sulfamoyl]amino]-2,6-difluoro-benzoyl]-1H-pyrrolo[2,3-b]pyridine] | 13.9 | 8.18
CCN(C)S(=O)(=O)Nc1ccc(F)c(C(=O)c2c[nH]c3ncc(-c4cnc(N5CCN(C(=O)CC6(O)CCN(c7ccc(N8CCC(=O)NC8=O)cc7F)CC6)CC5)c(F)c4)cc23)c1F [Example 194, 5-[6-[4-[2-[1-[4-(2,4-dioxohexahydropyrimidin-1-yl)-2-fluoro-phenyl]-4-hydroxy-4-piperidyl]acetyl]piperazin-1-yl]-5-fluoro-3-pyridyl]-3-[3-[[ethyl(methyl)sulfamoyl]amino]-2,6-difluoro-benzoyl]-1H-pyrrolo[2,3-b]pyridine] | 4.5 | 8.29
CCN(C)S(=O)(=O)Nc1ccc(F)c(C(=O)c2c[nH]c3ncc(-c4cc(F)c(N5CCN(C(=O)CC6(O)CCN(c7ccc(NC8CCC(=O)NC8=O)cc7F)CC6)CC5)c(F)c4)cc23)c1F (stereo not shown) [Example 195, 5-[4-[4-[2-[1-[4-[(2,6-dioxo-3-piperidyl)amino]-2-fluoro-phenyl]-4-hydroxy-4-piperidyl]acetyl]piperazin-1-yl]-3,5-difluoro-phenyl]-3-[3-[[ethyl(methyl)sulfamoyl]amino]-2,6-difluoro-benzoyl]-1H-pyrrolo[2,3-b]pyridine] | 6.23 | 7.6
CCN(C)S(=O)(=O)Nc1ccc(F)c(C(=O)c2c[nH]c3ncc(-c4ccc(N5CCN(C(=O)CC6(O)CCN(c7ccc(NC8CCC(=O)NC8=O)cc7C(F)F)CC6)CC5)nc4)cc23)c1F (stereo not shown) [Example 197, 5-[6-[4-[2-[1-[2-(difluoromethyl)-4-[(2,6-dioxo-3-piperidyl)amino]phenyl]-4-hydroxy-4-piperidyl]acetyl]piperazin-1-yl]-3-pyridyl]-3-[3-[[ethyl(methyl)sulfamoyl]amino]-2,6-difluoro-benzoyl]-1H-pyrrolo[2,3-b]pyridine] | 7.36 | 8.11
CCN(C)S(=O)(=O)Nc1ccc(F)c(C(=O)c2c[nH]c3ncc(-c4ccc(N5CCN(C(=O)CC6(O)CCN(c7ccc(NC8CCC(=O)NC8=O)cc7F)CC6)CC5)c(F)c4)cc23)c1F (stereo not shown) [Example 198, 5-[4-[4-[2-[1-[4-[(2,6-dioxo-3-piperidyl)amino]-2-fluoro-phenyl]-4-hydroxy-4-piperidyl]acetyl]piperazin-1-yl]-3-fluoro-phenyl]-3-[3-[[ethyl(methyl)sulfamoyl]amino]-2,6-difluoro-benzoyl]-1H-pyrrolo[2,3-b]pyridine] | 2.42 | 6.19
CCN(C)S(=O)(=O)Nc1ccc(F)c(C(=O)c2c[nH]c3ncc(-c4cnc(N5CC6(CC(C7CCN(c8ccc(NC9CCC(=O)NC9=O)cc8F)CC7)C6)C5)nc4)cc23)c1F (stereo not shown) [Example 199, 5-[2-[6-[1-[4-[(2,6-dioxo-3-piperidyl)amino]-2-fluoro-phenyl]-4-piperidyl]-2-azaspiro[3.3]heptan-2-yl]pyrimidin-5-yl]-3-[3-[[ethyl(methyl)sulfamoyl]amino]-2,6-difluoro-benzoyl]-1H-pyrrolo[2,3-b]pyridine] | 28.3 | 7.17
CCN(C)S(=O)(=O)Nc1ccc(F)c(C(=O)c2c[nH]c3ncc(-c4ccc(N5CCN(C(=O)CC6(O)CCN(c7ccc8c(N9CCC(=O)NC9=O)nn(C)c8c7)CC6)CC5)cc4)cc23)c1F [Example 202, 3-(2,4-dioxohexahydropyrimidin-1-yl)-6-[4-[2-[4-[4-[3-[3-[[ethyl(methyl)sulfamoyl]amino]-2,6-difluoro-benzoyl]-1H-pyrrolo[2,3-b]pyridin-5-yl]phenyl]piperazin-1-yl]-2-oxo-ethyl]-4-hydroxy-1-piperidyl]-1-methyl-indazole] | 2.1 | 7.44
CCN(C)S(=O)(=O)Nc1ccc(F)c(C(=O)c2c[nH]c3ncc(-c4cnc(N5CCN(C(=O)CC6(O)CCN(c7ccc(NC8CCC(=O)NC8=O)cc7C(F)F)CC6)CC5)nc4)cc23)c1F (stereo not shown) [Example 204, 5-[2-[4-[2-[1-[2-(difluoromethyl)-4-[(2,6-dioxo-3-piperidyl)amino]phenyl]-4-hydroxy-4-piperidyl]acetyl]piperazin-1-yl]pyrimidin-5-yl]-3-[3-[[ethyl(methyl)sulfamoyl]amino]-2,6-difluoro-benzoyl]-1H-pyrrolo[2,3-b]pyridine] | 3.8 | 8.6
CCN(C)S(=O)(=O)Nc1ccc(F)c(C(=O)c2c[nH]c3ncc(-c4cnc(N5CCN(C(=O)CC6(O)CCN(c7ccc(C8CCC(=O)NC8=O)cc7F)CC6)CC5)c(F)c4)cc23)c1F (stereo not shown) [Example 205, 5-[6-[4-[2-[1-[4-(2,6-dioxo-3-piperidyl)-2-fluoro-phenyl]-4-hydroxy-4-piperidyl]acetyl]piperazin-1-yl]-5-fluoro-3-pyridyl]-3-[3-[[ethyl(methyl)sulfamoyl]amino]-2,6-difluoro-benzoyl]-1H-pyrrolo[2,3-b]pyridine] | 2.34 | 6.63
CCN(C)S(=O)(=O)Nc1ccc(F)c(C(=O)c2c[nH]c3ncc(-c4cnc(N5CCN(C(=O)CC6(O)CCN(c7ccc(N[C@H]8CCC(=O)NC8=O)cc7Cl)CC6)CC5)nc4)cc23)c1F [Example 206, 5-[2-[4-[2-[1-[2-chloro-4-[[(3S)-2,6-dioxo-3-piperidyl]amino]phenyl]-4-hydroxy-4-piperidyl]acetyl]piperazin-1-yl]pyrimidin-5-yl]-3-[3-[[ethyl(methyl)sulfamoyl]amino]-2,6-difluoro-benzoyl]-1H-pyrrolo[2,3-b]pyridine] | 2.28 | 6.9
CCN(C)S(=O)(=O)Nc1cc(F)cc(C(=O)c2c[nH]c3ncc(-c4ccc(N5CCN(C(=O)CC6(O)CCN(c7ccc(NC8CCC(=O)NC8=O)cc7F)CC6)CC5)nc4)cc23)c1F (stereo not shown) [Example 207, 5-[6-[4-[2-[1-[4-[(2,6-dioxo-3-piperidyl)amino]-2-fluoro-phenyl]-4-hydroxy-4-piperidyl]acetyl]piperazin-1-yl]-3-pyridyl]-3-[3-[[ethyl(methyl)sulfamoyl]amino]-2,5-difluoro-benzoyl]-1H-pyrrolo[2,3-b]pyridine] | 1.23 | 6.98
CCN(C)S(=O)(=O)Nc1ccc(F)c(C(=O)c2c[nH]c3ncc(-c4ccc(N5CCN(C(=O)CC6(O)CCN(c7ccc(N[C@H]8CCC(=O)NC8=O)cc7Cl)CC6)CC5)nc4)cc23)c1F [Example 208, 5-[6-[4-[2-[1-[2-chloro-4-[[(3S)-2,6-dioxo-3-piperidyl]amino]phenyl]-4-hydroxy-4-piperidyl]acetyl]piperazin-1-yl]-3-pyridyl]-3-[3-[[ethyl(methyl)sulfamoyl]amino]-2,6-difluoro-benzoyl]-1H-pyrrolo[2,3-b]pyridine] | 1.73 | 7.34

Further compounds by falling DC50, results first:

DC50 [nM] | Emax [%] | SMILES
4.19 | 6.67 | CCN(C)S(=O)(=O)Nc1ccc(Cl)c(C(=O)c2c[nH]c3ncc(-c4ccc(N5CCN(C(=O)CC6(O)CCN(c7ccc(NC8CCC(=O)NC8=O)cc7F)CC6)CC5)nc4)cc23)c1F (stereo not shown) [Example 201, 3-[6-chloro-3-[[ethyl(methyl)sulfamoyl]amino]-2-fluoro-benzoyl]-5-[6-[4-[2-[1-[4-[(2,6-dioxo-3-piperidyl)amino]-2-fluoro-phenyl]-4-hydroxy-4-piperidyl]acetyl]piperazin-1-yl]-3-pyridyl]-1H-pyrrolo[2,3-b]pyridine]
2.28 | 5.13 | CCN(C)S(=O)(=O)Nc1ccc(F)c(C(=O)c2c[nH]c3ncc(-c4cnc(N5CC6(C5)CN(C5CCN(c7ccc(NC8CCC(=O)NC8=O)cc7F)CC5)C6)nc4)cc23)c1F (stereo not shown) [Example 203, 5-[2-[2-[1-[4-[(2,6-dioxo-3-piperidyl)amino]-2-fluoro-phenyl]-4-piperidyl]-2,6-diazaspiro[3.3]heptan-6-yl]pyrimidin-5-yl]-3-[3-[[ethyl(methyl)sulfamoyl]amino]-2,6-difluoro-benzoyl]-1H-pyrrolo[2,3-b]pyridine]
1.7 | 7.39 | CCN(C)S(=O)(=O)Nc1ccc(F)c(C(=O)c2c[nH]c3ncc(-c4ccc(N5CCN(C(=O)CC6(O)CCN(c7ccc8c(N9CCC(=O)NC9=O)nn(C)c8c7)CC6)CC5)nc4)cc23)c1F [Example 193, 3-(2,4-dioxohexahydropyrimidin-1-yl)-6-[4-[2-[4-[5-[3-[3-[[ethyl(methyl)sulfamoyl]amino]-2,6-difluoro-benzoyl]-1H-pyrrolo[2,3-b]pyridin-5-yl]-2-pyridyl]piperazin-1-yl]-2-oxo-ethyl]-4-hydroxy-1-piperidyl]-1-methyl-indazole]
1.14 | 6.81 | CCN(C)S(=O)(=O)Nc1ccc(F)c(C(=O)c2c[nH]c3ncc(-c4cnc(N5CC6(C5)CC(O)(C5CCN(c7ccc(NC8CCC(=O)NC8=O)cc7F)CC5)C6)nc4)cc23)c1F (stereo not shown) [Example 196, 5-[2-[6-[1-[4-[(2,6-dioxo-3-piperidyl)amino]-2-fluoro-phenyl]-4-piperidyl]-6-hydroxy-2-azaspiro[3.3]heptan-2-yl]pyrimidin-5-yl]-3-[3-[[ethyl(methyl)sulfamoyl]amino]-2,6-difluoro-benzoyl]-1H-pyrrolo[2,3-b]pyridine]
0.76 | 5.52 | CCN(C)S(=O)(=O)Nc1ccc(F)c(C(=O)c2c[nH]c3ncc(-c4cnc(N5CCN(C(=O)CC6(O)CCN(c7ccc(N[C@@H]8CCC(=O)NC8=O)cc7Cl)CC6)CC5)nc4)cc23)c1F [Example 209, 5-[2-[4-[2-[1-[2-chloro-4-[[(3R)-2,6-dioxo-3-piperidyl]amino]phenyl]-4-hydroxy-4-piperidyl]acetyl]piperazin-1-yl]pyrimidin-5-yl]-3-[3-[[ethyl(methyl)sulfamoyl]amino]-2,6-difluoro-benzoyl]-1H-pyrrolo[2,3-b]pyridine]
